In patent publication US5792882A, “Phenoxyphenyl cyclopentenyl hydroxyureas” (Pfizer Inc., priority 1993, dated 1998) one finds IC50 and ED50 data, which are given here for three compounds.

As usually defined, the IC50 is the concentration that gives 50% inhibition. One may read the ED50 as the dose at which the effect has come halfway, by size or by number of responders. Read a low ED50 as greater potency.

The target of test [1] is T1, 5-lipoxygenase (LO) (Homo sapiens, UniProt P09917).
T1 construct: Aliquots of heparinized human whole blood (1 ml) from healthy donors; endogenous in cells; host or cells: heparinized human whole blood from healthy donors
T1 sequence (P09917 1-674): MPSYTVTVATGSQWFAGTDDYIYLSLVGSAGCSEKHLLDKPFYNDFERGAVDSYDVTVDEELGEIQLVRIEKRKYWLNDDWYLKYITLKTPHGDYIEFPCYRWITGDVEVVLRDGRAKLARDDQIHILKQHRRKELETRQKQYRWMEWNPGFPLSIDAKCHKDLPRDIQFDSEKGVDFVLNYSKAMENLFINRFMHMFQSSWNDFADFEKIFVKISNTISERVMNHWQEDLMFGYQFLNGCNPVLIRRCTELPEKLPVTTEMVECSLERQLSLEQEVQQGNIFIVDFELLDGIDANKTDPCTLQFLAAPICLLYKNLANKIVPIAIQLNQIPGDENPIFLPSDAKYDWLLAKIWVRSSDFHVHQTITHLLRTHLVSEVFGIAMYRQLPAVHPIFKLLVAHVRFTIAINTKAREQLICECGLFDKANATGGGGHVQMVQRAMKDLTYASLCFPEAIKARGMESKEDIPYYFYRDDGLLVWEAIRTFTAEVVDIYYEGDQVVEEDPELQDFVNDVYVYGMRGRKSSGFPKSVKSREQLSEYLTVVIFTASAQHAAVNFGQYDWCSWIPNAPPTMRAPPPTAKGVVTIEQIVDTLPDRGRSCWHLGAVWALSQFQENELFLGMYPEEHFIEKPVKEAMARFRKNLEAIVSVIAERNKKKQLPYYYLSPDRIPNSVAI
Put plainly: In vitro assay using heparinized human whole blood (HWB). The test is classed as cell-based. As to conditions: calcium ionophore stimulated, 10 min preincubation at 37° C., read-out: IC50, inhibition of 5-lipoxygenase metabolism of arachidonic acid. The procedure: 1) In vitro assay using heparinized human whole blood (HWB)
Aliquots of heparinized human whole blood (1 ml) from healthy donors were preincubated with drugs dissolved in dimethyl sulfoxide (final concentration, 0.1%) for 10 min at 37° C., then calcium ionophore […] (60 μM) and Heparapid (2.5%, Sekisui Chemical Co. LTD., Japan) were added and incubations were continued for further 30 min. Reactions were terminated by rapid cooling in an ice bath. Blood-clots induced by Heparapid were removed by centrifugation. Acetonitrile (ACN, 1.5 ml) and PGB2 (200 ng, as internal standard) were added to supernatants. Samples were mixed by Voltex mixer and precipitated proteins were removed by centrifugation. Supernatants were diluted to 15% ACN with water and were loaded onto prewashed Sep-Pak C18 cartridge (Waters Associates, Milford, Miss., USA) and arachidonate metabolites were eluted with 4 ml of 70% methanol. Methanolic extract was evaporated and the residue was then reconstituted in 250 μl of 67% ACN.
ACN reconstituents (100 μl) were injected onto a reversed phase C18 column (Wakosil SC18, 4.6×150 mm, Wako Pure Chemical Industries LTD, Japan). Column temperature was 40° C. HPLC analysis was performed by Hewlett Packard model 1090M HPLC system. The chromatographic was achieved by gradient elution using two different mobile phase ( mobile phase A consisted of 10% ACN, 0.1% trifluoroacetic acid and 0.05% triethylamine; mobile phase B consisted of 80% ACN, 0.1% trifluoroacetic acid and 0.05% triethylamine). Each mobile phase was continuously sparged with helium. The HPLC gradient was programmed as follows (where A+B=100): from 0 to 9.7 min, a linear gradient from 35 to 100% of […] with flow rate of 1 ml/min. Peaks of eluting products were quantitated by UV absorbance (LTB4 and PGB2 at 275 nm; HHT and 5-HETE at 235 nm, respectively) and were corrected by PGB2 recovery. Linear regression was used to estimate IC50 values. […]

The subject of test [2] is platelet activating factor (PAF) induced lethality. Put plainly: PAF induced lethality in mice, test compound administered orally. In kind it is in vivo, ICR mice (male). The conditions noted are these: Mus musculus, oral administration 45 min prior to PAF injection (12 μg/Kg i.v.), mortality 1 hr after PAF. As for the experimental part: 2) In vivo system measuring effects of test compound administered orally against platelet activating factor (PAF) induced lethality in mice
The in vivo potency after oral administration of test compounds to ICR mice (male) was determined using the PAF lethality assay in a similar manner as that described in the following articles: J. M. Young, P. J. Maloney, S. N. Jubb, and J. S. Clark, Prostaglandins, 30, 545 (1985); M. Criscuoli and A. Subissi, Br. J. Pharmac., 90, 203 (1987); and H. Tsunoda, S. Abe, Y. Sakuma, S. Katayama and K. Katayama, Prostaglandins Leukotrienes and Essential Fatty Acids, 39, 291 (1990). PAF was dissolved at a concentration of 1.2 μg/ml in 0.05 mg/ml propranolol-saline containing 0.25% bovine serum albumin (BSA) and injected intravenously into mice at a dose of 12 μg/Kg. Mortality was determined 1 hr after PAF injection. To investigate the effect of 5-LO inhibitors, compounds were dissolved in 5% tween 80, 5% EtOH-saline and administered orally (0.1 ml/10 g) 45 min prior to PAF injection. Linear regression was used to estimate ED50 values.

`NC(=O)N(O)C1C=C(c2cccc(Oc3ccc(F)cc3)c2)CC1` (single isomer, unassigned; (+)) [Example 1, (+)-N-[3-[3-(4-Fluorophenoxy)phenyl]-2-cyclopenten-1-yl]-N-hydroxyurea]: the IC50 in test [1] was about 500 nM. The same compound displayed an ED50 in test [2] of 1 to 10 mg/kg.

For `NC(=O)N(O)C1C=C(c2cccc(Oc3ccc(Cl)cc3)c2)CC1` (single isomer, unassigned; (+)) [Example 3, (+)-N-[3-[3-(4-Chlorophenoxy)phenyl]-2-cyclopenten-1-yl]-N-hydroxyurea], the IC50 in test [1] is about 500 nM. Besides, in test [2], the ED50 lay within 1 to 10 mg/kg.

As for `NC(=O)N(O)C1C=C(c2cccc(Oc3ccccc3)c2)CC1` (single isomer, unassigned; (+)) [Example 2, (+)-N-[3-(3-Phenoxyphenyl)-2-cyclopenten-1-yl]-N-hydroxyurea], the IC50 in test [1] was about 500 nM. In test [2], this compound came in with a 50% effective dose (ED50) of 1 to 10 mg/kg.
